According to patent US4935238A, “Antibiotic A 40926 complex and its pure factors PA, PB, A, B and B0” (Gruppo Lepetit, S.p.A., priority 1984, dated 1990):
Values after ≈ are worked out from the molar mass of the structure shown.

Columns and labels:
Assay in all cases: Bactericidal effect on N. gonorrhoeae strains
Assay type in all cases: cell-based
[1] = test system: N. gonorrhoeae L 1605; settings: Neisseria gonorrhoeae, L1605, clinical isolate, penicillin-resistant
[2] = test system: N. gonorrhoeae L 1596; settings: Neisseria gonorrhoeae, L1596, clinical isolate, spectinomycin-resistant
[3] = test system: N. gonorrhoeae L 1001; settings: Neisseria gonorrhoeae, L1001, clinical isolate
[4] = test system: N. gonorrhoeae L 1007 (CTC 6820); settings: Neisseria gonorrhoeae
[5] = test system: N. gonorrhoeae L 1601; settings: Neisseria gonorrhoeae, L1601, clinical isolate, penicillin-resistant
[6] = test system: N. gonorrhoeae L 1004; settings: Neisseria gonorrhoeae, L1004, clinical isolate
[7] = 24 h, 99.9% of initial inoculum killed

CN[C@@H]1[C@H](O)[C@H](NC)[C@H]2O[C@@]3(O)C(=O)C[C@@H](C)O[C@H]3O[C@@H]2[C@H]1O [Spectinomycin]
MBC [1, 7]: 32 µg/mL (≈ 96.3 µM) | MIC ([1]; 48 h): 32 µg/mL (≈ 96.3 µM) | MBC [2, 7]: > 128 µg/mL | MIC ([2]; 48 h): > 128 µg/mL | MBC [3, 7]: 32 µg/mL (≈ 96.3 µM) | MIC ([3]; 48 h): 16 µg/mL (≈ 48.1 µM) | MIC ([4]; 48 h): 16 µg/mL (≈ 48.1 µM) | MBC [4, 7]: 16 µg/mL (≈ 48.1 µM) | MBC [5, 7]: 16 µg/mL (≈ 48.1 µM) | MIC ([5]; 48 h): 16 µg/mL (≈ 48.1 µM) | MBC [6, 7]: 32 µg/mL (≈ 96.3 µM) | MIC ([6]; 48 h): 16 µg/mL (≈ 48.1 µM)
